Experimental data taken from US12153287B2, “Sustained fatty acid release from contact lens” (CooperVision International Limited, priority 2022, dated 2024).

Target: T1, recombinant human PLA2G2A (sPLA2-IIA) (Homo sapiens, UniProt P14555)
T1 sequence (P14555 21-144): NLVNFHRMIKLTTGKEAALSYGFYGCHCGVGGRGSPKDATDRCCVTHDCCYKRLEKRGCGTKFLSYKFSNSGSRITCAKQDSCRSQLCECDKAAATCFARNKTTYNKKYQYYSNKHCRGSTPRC
Assay: Susceptibility of phospholipid digestion by sPLA2-IIA (lens pieces in ATF with and without sPLA2, LCMS of released fatty acid)
Conditions: phospholipid present in a silicone hydrogel contact lens body
Description: Each phospholipid-loaded lens is removed from its package and placed in a 6 mL glass vial containing 5 mL of the ATF described in Example 2 at room temperature on a shaker at 125 rpm overnight to elute any free fatty acid that may be present in the lens.
Each lens is rinsed in a 6 ml glass vial containing a fresh aliquot of 5 mL ATF for 30 minutes prior to running the digestion assay.
Two 4 mm pieces are cut from each lens. One piece of each lens is placed in a tube with 100 μL ATF and the other piece is placed in a tube containing 100 μL ATF+sPLA2. The tubes are incubated at 35±2° C. for 4 hours with no shaking.
T=0 hr HPLC vials are also prepared (50 μl ATF+500 μl IPA). All vials are sonicated for 15 minutes and centrifuged. […]
The supernatants are injected on an LCMS instrument equipped with an ACQUITY UPLC BEH C18 1.7 μg, 2.1 mm×15 cm column and running a mobile phase gradient from 65% A to 90% B at a flow rate of 0.35 mL/min with A=40% acetonitrile in water with 10 mM ammonium acetate and 0.2% (v/v) ammonium hydroxide, and B=10% acetonitrile in IPA with 10 mM ammonium acetate and 0.2% (v/v) ammonium hydroxide. […] The peak for the particular fatty acid of interest in the supernatants (i.e., the fatty acid that is released from the sn-2 position of the phospholipid in the contact lens) is measured. The ratio of fatty acid peak area in ATF with and without sPLA2 is calculated. […]

| SMILES | Susceptibility to digestion by sPLA2 enzymes found in human tears |
| --- | --- |
| CCCCCCCCCCCCCC(=O)OC[C@H](COP(=O)([O-])OCC[N+](C)(C)C)OC(=O)CCCCCCCCCCCCC [DMPC, 1,2-dimyristoyl-sn-glycero-3-phosphocholine] | not susceptible to digestion |
| CCCCCCCC/C=C\CCCCCCCC(=O)OC[C@H](COP(=O)([O-])OCC[N+](C)(C)C)OC(=O)CCCCCCC/C=C\CCCCCCCC [DOPC, 1,2-dioleoyl-sn-glycero-3-phosphocholine] | not susceptible to digestion |
